Test results published in PubChem BioAssay (NCI).
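Dose response: 5 concentrations. Exposure: 48 h. Format: 96-well plates. Endpoint: linear interpolation; highest concentration if not reached. GI50: concentration for 50% inhibition of growth. TGI marks complete inhibition of growth.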

How the values were obtained:
Assay in all cases: NCI-60 cell line screen, 48 h
SN12C renal = system: SN12C renal
HCT-15 colon = system: HCT-15 colon
OVCAR-3 ovarian = system: OVCAR-3 ovarian
DU-145 prostate = system: DU-145 prostate
NCI/ADR-RES ovarian = system: NCI/ADR-RES ovarian
COLO 205 colon = system: COLO 205 colon
A549 NSCLC = system: A549 NSCLC
UACC-257 melanoma = system: UACC-257 melanoma
U251 CNS = system: U251 CNS
SK-MEL-2 melanoma = system: SK-MEL-2 melanoma
SR leukemia = system: SR leukemia
MDA-MB-435 = system: MDA-MB-435
NCI-H460 lung = system: NCI-H460 lung
MDA-MB-231 breast = system: MDA-MB-231 breast
SF-268 CNS = system: SF-268 CNS
SF-295 CNS = system: SF-295 CNS
UO-31 renal = system: UO-31 renal
EKVX NSCLC = system: EKVX NSCLC
HOP-92 NSCLC = system: HOP-92 NSCLC
MOLT-4 leukemia = system: MOLT-4 leukemia
IGROV1 ovarian = system: IGROV1 ovarian
HCT-116 colon = system: HCT-116 colon
SK-OV-3 ovarian = system: SK-OV-3 ovarian
MALME-3M melanoma = system: MALME-3M melanoma
HOP-62 NSCLC = system: HOP-62 NSCLC
OVCAR-5 ovarian = system: OVCAR-5 ovarian
M14 melanoma = system: M14 melanoma
HCC-2998 colon = system: HCC-2998 colon
LOX IMVI melanoma = system: LOX IMVI melanoma
SNB-75 CNS = system: SNB-75 CNS
OVCAR-8 ovarian = system: OVCAR-8 ovarian
HL-60(TB) leukemia = system: HL-60(TB) leukemia
MCF7 breast = system: MCF7 breast
786-0 renal = system: 786-0 renal
NCI-H23 lung = system: NCI-H23 lung
SNB-19 CNS = system: SNB-19 CNS
SW-620 colon = system: SW-620 colon
HS 578T breast = system: HS 578T breast
TK-10 renal = system: TK-10 renal
T-47D breast = system: T-47D breast
SK-MEL-5 melanoma = system: SK-MEL-5 melanoma
OVCAR-4 ovarian = system: OVCAR-4 ovarian
A498 renal = system: A498 renal
PC-3 prostate = system: PC-3 prostate
ACHN renal = system: ACHN renal
K-562 leukemia = system: K-562 leukemia
SF-539 CNS = system: SF-539 CNS
KM12 colon = system: KM12 colon
NCI-H226 lung = system: NCI-H226 lung
CAKI-1 renal = system: CAKI-1 renal
CCRF-CEM leukemia = system: CCRF-CEM leukemia
HT29 colon = system: HT29 colon
NCI-H522 lung = system: NCI-H522 lung
SK-MEL-28 melanoma = system: SK-MEL-28 melanoma
UACC-62 melanoma = system: UACC-62 melanoma
RPMI-8226 leukemia = system: RPMI-8226 leukemia
BT-549 breast = system: BT-549 breast

In the case of `CC[C@H](C)[C@H](NC(=O)C12C3C4C1C1C2C3C41NC(C)=O)C(=O)N(C)[C@H](C[C@@H](OC(C)=O)c1nc(C(=O)N[C@@H](Cc2ccccc2)C[C@H](C)C(=O)OC)cs1)C(C)C` (stereo partly drawn), the GI50 (SN12C renal) is reported as 799 nM, the TGI (SN12C renal) is reported as > 14300 nM and the GI50 (HCT-15 colon) is reported as 2410 nM. The TGI (HCT-15 colon) was > 14300 nM, the GI50 (OVCAR-3 ovarian) was 56.5 nM and the TGI (OVCAR-3 ovarian) was 1080 nM. The GI50 (DU-145 prostate) was 469 nM, the TGI (DU-145 prostate) was > 9880 nM and the GI50 (NCI/ADR-RES ovarian) was > 14300 nM. For the same molecule, the TGI (NCI/ADR-RES ovarian) was > 14300 nM, the GI50 (COLO 205 colon) was 346 nM and the TGI (COLO 205 colon) was 1710 nM. For the same molecule, the GI50 (A549 NSCLC) was 2820 nM, the TGI (A549 NSCLC) was > 14300 nM and the GI50 (UACC-257 melanoma) was 563 nM. For the same molecule, the TGI (UACC-257 melanoma) was > 14300 nM, the GI50 (U251 CNS) was 434 nM and the TGI (U251 CNS) was > 14300 nM. For the same molecule, the GI50 (SK-MEL-2 melanoma) was 162 nM, the TGI (SK-MEL-2 melanoma) was > 14300 nM and the GI50 (SR leukemia) was 33.1 nM. For the same molecule, the TGI (SR leukemia) was > 14300 nM, the GI50 (MDA-MB-435) was 42.7 nM and the TGI (MDA-MB-435) was 625 nM. The GI50 (NCI-H460 lung) was 402 nM, the TGI (NCI-H460 lung) was > 14300 nM and the GI50 (MDA-MB-231 breast) was 435 nM. The TGI (MDA-MB-231 breast) was > 14300 nM, the GI50 (SF-268 CNS) was 677 nM and the TGI (SF-268 CNS) was > 14300 nM. For the same molecule, the GI50 (SF-295 CNS) was 494 nM, the TGI (SF-295 CNS) was > 14300 nM and the GI50 (UO-31 renal) was 8550 nM. The TGI (UO-31 renal) was > 14300 nM, the GI50 (EKVX NSCLC) was 2810 nM and the TGI (EKVX NSCLC) was > 14300 nM. The GI50 (HOP-92 NSCLC) was > 14300 nM, the TGI (HOP-92 NSCLC) was > 14300 nM and the GI50 (MOLT-4 leukemia) was 588 nM. For the same molecule, the TGI (MOLT-4 leukemia) was > 14300 nM, the GI50 (IGROV1 ovarian) was 593 nM and the TGI (IGROV1 ovarian) was > 14300 nM. The GI50 (HCT-116 colon) was 354 nM, the TGI (HCT-116 colon) was > 14300 nM and the GI50 (SK-OV-3 ovarian) was 703 nM. The TGI (SK-OV-3 ovarian) was > 14300 nM, the TGI (MALME-3M melanoma) was > 14300 nM and the GI50 (HOP-62 NSCLC) was 618 nM. The TGI (HOP-62 NSCLC) was > 14300 nM, the GI50 (OVCAR-5 ovarian) was 3970 nM and the TGI (OVCAR-5 ovarian) was > 14300 nM. It also gave a GI50 (M14 melanoma) of 259 nM, a TGI (M14 melanoma) of 2250 nM and a GI50 (HCC-2998 colon) of 279 nM. The TGI (HCC-2998 colon) was > 14300 nM, the GI50 (LOX IMVI melanoma) was 231 nM and the TGI (LOX IMVI melanoma) was > 14300 nM. The GI50 (SNB-75 CNS) was 109 nM, the TGI (SNB-75 CNS) was > 14300 nM and the GI50 (OVCAR-8 ovarian) was 614 nM. For the same molecule, the TGI (OVCAR-8 ovarian) was > 14300 nM, the GI50 (HL-60(TB) leukemia) was 67.9 nM and the TGI (HL-60(TB) leukemia) was 383 nM. For the same molecule, the GI50 (MCF7 breast) was 50.3 nM, the TGI (MCF7 breast) was > 14300 nM and the GI50 (786-0 renal) was 902 nM. The TGI (786-0 renal) was > 14300 nM, the GI50 (NCI-H23 lung) was 884 nM and the TGI (NCI-H23 lung) was > 14300 nM. The GI50 (SNB-19 CNS) was 578 nM, the TGI (SNB-19 CNS) was > 14300 nM and the GI50 (SW-620 colon) was 206 nM. The TGI (SW-620 colon) was > 14300 nM, the GI50 (HS 578T breast) was 468 nM and the TGI (HS 578T breast) was > 14300 nM. The GI50 (TK-10 renal) was 1110 nM, the TGI (TK-10 renal) was > 14300 nM and the GI50 (T-47D breast) was > 14300 nM. The TGI (T-47D breast) was > 14300 nM, the GI50 (SK-MEL-5 melanoma) was 152 nM and the TGI (SK-MEL-5 melanoma) was 2980 nM. For the same molecule, the GI50 (OVCAR-4 ovarian) was 1380 nM, the TGI (OVCAR-4 ovarian) was > 14300 nM and the GI50 (A498 renal) was 503 nM. For the same molecule, the TGI (A498 renal) was 10200 nM, the GI50 (PC-3 prostate) was 582 nM and the TGI (PC-3 prostate) was > 14300 nM. For the same molecule, the GI50 (ACHN renal) was 2530 nM, the TGI (ACHN renal) was > 14300 nM and the GI50 (K-562 leukemia) was 118 nM. The TGI (K-562 leukemia) was > 14300 nM, the GI50 (SF-539 CNS) was 349 nM and the TGI (SF-539 CNS) was 1010 nM. For the same molecule, the GI50 (KM12 colon) was 471 nM, the TGI (KM12 colon) was > 14300 nM and the GI50 (NCI-H226 lung) was > 9710 nM. The TGI (NCI-H226 lung) was > 14300 nM, the GI50 (CAKI-1 renal) was > 10800 nM and the TGI (CAKI-1 renal) was > 14300 nM. The GI50 (CCRF-CEM leukemia) was 361 nM, the TGI (CCRF-CEM leukemia) was > 14300 nM and the GI50 (HT29 colon) was 360 nM. For the same molecule, the TGI (HT29 colon) was 2470 nM, the GI50 (NCI-H522 lung) was 63.7 nM and the TGI (NCI-H522 lung) was 513 nM. The GI50 (SK-MEL-28 melanoma) was > 3700 nM, the TGI (SK-MEL-28 melanoma) was > 14300 nM and the GI50 (UACC-62 melanoma) was 112 nM. For the same molecule, the TGI (UACC-62 melanoma) was > 14300 nM, the GI50 (RPMI-8226 leukemia) was 73.5 nM and the TGI (RPMI-8226 leukemia) was > 6780 nM. For the same molecule, the GI50 (BT-549 breast) was 146 nM and the TGI (BT-549 breast) was 3840 nM.
